Settings: not given

Q: What does the source list for `CC1CCC(C)(C(=O)O)C1(C)C` (stereo not given)?
A: boiling point: 254 °C; melting point: 106 °C

Q: For `C=C(C)CCCCC`, which boiling point is on record?
A: 119 °C

Q: What about the log10 vapour pressure (mmHg) of the same compound?
A: 1.3

Q: What about the melting point of the same compound?
A: -90 °C

Q: Which results are given for `CC(Oc1ccc2ccccc2c1)C(O)=Nc1ccccc1` (stereo not given)?
A: log10 vapour pressure (mmHg): -10.7; melting point: 128 °C

Q: Which results are given for `C=CCS`?
A: boiling point: 65 °C; log10 vapour pressure (mmHg): 2.72

Q: With `CCCCCCCCCCCCCCCC(=O)c1ccccc1` as the compound, how does the melting point read?
A: 59 °C

Q: With `CC(C)COC(N)=O` as the compound, how does the boiling point read?
A: 207 °C

Q: And the melting point?
A: 67 °C

Q: For `C=CCC1(CC(=C)Br)C(=O)NC(=O)NC1=O`, which melting point is on record?
A: 168 °C

Q: Which melting point does the source give for `C=CCOC(=O)OCCOCCOC(=O)OCC=C` here?
A: -4 °C

Q: What about the ready biodegradability of the same compound?
A: readily biodegradable

Q: With `CCc1ccc(C(=O)O)cc1` as the compound, how does the melting point read?
A: 112 °C

Q: Which log10 Koc (L/kg) does the source give for `CC1CCCCN1CCCOC(=O)c1ccc(Cl)c(Cl)c1` (stereo not given) here?
A: 3.7

Q: For `CCCCCCCCCCCCCCCCCCNC(=O)[C@H](O)[C@@H](O)[C@H](O)[C@H](O)CO`, which ready biodegradability is on record?
A: not readily biodegradable

Q: With `FC(F)(F)C(F)(F)C(F)(F)C(F)(F)C(F)(F)C(F)(F)C(F)(F)I` as the compound, how does the boiling point read?
A: 138 °C

Q: For `O=C(OC(=O)C(F)(F)F)C(F)(F)F`, which boiling point is on record?
A: 39.5 °C

Q: And the log10 vapour pressure (mmHg)?
A: 1.61

Q: And the melting point?
A: -65 °C

Q: Which melting point does the source give for `Oc1c(Cl)c(O)c(Cl)c(O)c1Cl` here?
A: 136 °C

Q: Which log10 Koc (L/kg) does the source give for `CCOP(=O)(OCC)SCCSCC` here?
A: 1.85

Q: For `O=C(O)CCCC(=O)O`, which boiling point is on record?
A: 303 °C

Q: And the log10 vapour pressure (mmHg)?
A: -5.54

Q: Which boiling point does the source give for `CNc1ccccc1` here?
A: 196 °C

Q: And the log10 Henry constant (atm·m³/mol)?
A: -5.05

Q: And the log10 Koc (L/kg)?
A: 2.28

Q: And the log10 vapour pressure (mmHg)?
A: -0.344

Q: What about the melting point of the same compound?
A: -57 °C

Q: And the ready biodegradability?
A: not readily biodegradable

Q: With `CCCO` as the compound, how does the boiling point read?
A: 97.2 °C

Q: And the log10 Henry constant (atm·m³/mol)?
A: -5.13

Q: What about the log10 vapour pressure (mmHg) of the same compound?
A: 1.32

Q: And the ready biodegradability?
A: readily biodegradable

Q: With `c1ccc2c(c1)ccc1cccnc12` as the compound, how does the boiling point read?
A: 339 °C

Q: What about the log10 vapour pressure (mmHg) of the same compound?
A: -3.66

Q: What about the melting point of the same compound?
A: 52 °C

Q: What does the source list for `Clc1cc2c(cc1Cl)Oc1cc(Br)c(Br)cc1O2`?
A: log10 vapour pressure (mmHg): -8.33; melting point: 316 °C

Q: For `O=[N+]([O-])c1ccc2ccccc2c1`, which boiling point is on record?
A: 314 °C

Q: What about the melting point of the same compound?
A: 79 °C

Q: For `CCCCNC(=O)COC(=O)c1ccccc1`, which melting point is on record?
A: 69.5 °C

Q: Which results are given for `Fc1nc(F)nc(F)n1`?
A: boiling point: 72.8 °C; melting point: -38 °C

Q: For `CC(=O)Nc1ncc([N+](=O)[O-])s1`, which melting point is on record?
A: 264 °C

Q: For `C1CCSC1`, which boiling point is on record?
A: 121 °C

Q: And the log10 vapour pressure (mmHg)?
A: 1.26

Q: And the melting point?
A: -96.1 °C

Q: Which boiling point does the source give for `Sc1cccc2ccccc12` here?
A: 285 °C

Q: What about the ready biodegradability of the same compound?
A: not readily biodegradable

Q: With `c1ccc(N=C(Nc2ccccc2)Nc2ccccc2)cc1` as the compound, how does the melting point read?
A: 146 °C

Q: With `Oc1ccc(Cl)c(O)c1` as the compound, how does the melting point read?
A: 107 °C

Q: And the ready biodegradability?
A: not readily biodegradable

Q: Which boiling point does the source give for `CCCCC(CC)COC(=O)c1ccc(C(=O)OCC(CC)CCCC)cc1` (stereo not given) here?
A: 383 °C

Q: What about the log10 Koc (L/kg) of the same compound?
A: 4.16

Q: What about the melting point of the same compound?
A: -48 °C

Q: With `O=C(NN=Cc1ccc([N+](=O)[O-])o1)c1ccc(O)cc1` as the compound, how does the melting point read?
A: 298 °C

Q: Which log10 vapour pressure (mmHg) does the source give for `C=CCOC(=O)C(=C)C` here?
A: 0.761

Q: What about the ready biodegradability of the same compound?
A: readily biodegradable

Q: With `CC(C)CC(C)O` (stereo not given) as the compound, how does the boiling point read?
A: 132 °C

Q: And the log10 Henry constant (atm·m³/mol)?
A: -4.35

Q: And the log10 vapour pressure (mmHg)?
A: 0.724

Q: And the melting point?
A: -90 °C

Q: What about the ready biodegradability of the same compound?
A: readily biodegradable

Q: With `COc1cc(CC#N)ccc1O` as the compound, how does the melting point read?
A: 56.5 °C

Q: For `NNc1nncc2ccccc12`, which melting point is on record?
A: 172 °C

Q: For `CCCC[Si](C)(C)Cl`, which boiling point is on record?
A: 139 °C

Q: For `CCOC(=O)c1ccc(Cl)cc1`, which boiling point is on record?
A: 238 °C

Q: What does the source list for `CCCCCCCCCCCCCCCCCCCCC1CCCCC1`?
A: boiling point: 430 °C; melting point: 48.5 °C

Q: Which boiling point does the source give for `Cc1nccnc1C` here?
A: 156 °C

Q: With `CCCCCCCCCCCCCCCCCCOS(=O)(=O)[O-].[Na+]` as the compound, how does the melting point read?
A: 212 °C

Q: Which melting point does the source give for `COc1cc2c(cc1OC)C(CCc1ccc(Cl)cc1)N(C)CC2` (stereo not given) here?
A: 110 °C

Q: With `CCSCCO` as the compound, how does the boiling point read?
A: 184 °C

Q: What about the melting point of the same compound?
A: -100 °C

Q: Which melting point does the source give for `Cc1ccc([N+](=O)[O-])c(Cl)c1` here?
A: 24 °C

Q: What does the source list for `NC(=O)c1cc([N+](=O)[O-])cc([N+](=O)[O-])c1`?
A: log10 Koc (L/kg): 2.31; melting point: 184 °C

Q: For `O=C[C@@H]1C[C@@H]2[C@@H]3[C@H]1[C@@]1(Cl)C(Cl)(Cl)[C@]3(Cl)[C@@]3(Cl)[C@@H]2[C@]31Cl`, which log10 vapour pressure (mmHg) is on record?
A: -6.7

Q: For `c1ccc2c(c1)OCCOCCOCCOc1ccccc1OCCOCCOCCO2`, which melting point is on record?
A: 104 °C

Q: For `Cc1ccnc(N)c1`, which melting point is on record?
A: 100 °C

Q: Which log10 vapour pressure (mmHg) does the source give for `CNO` here?
A: 0.222

Q: And the melting point?
A: 87.5 °C

Q: With `COc1cccc(CO)c1O` as the compound, how does the melting point read?
A: 61.5 °C

Q: Which boiling point does the source give for `CC(=O)c1cccc(N)c1` here?
A: 290 °C

Q: What about the melting point of the same compound?
A: 98.5 °C

Q: Which boiling point does the source give for `FCCCF` here?
A: 41.6 °C

Q: Which boiling point does the source give for `C/C=C/CCCCCCCC` here?
A: 194 °C

Q: What about the melting point of the same compound?
A: -57.4 °C

Q: For `CON=O`, which boiling point is on record?
A: -12 °C

Q: And the melting point?
A: -16 °C

Q: Which melting point does the source give for `O=C(O)Cc1cccc(O)c1` here?
A: 132 °C

Q: With `CCOc1ccc2ccccc2c1C=O` as the compound, how does the melting point read?
A: 115 °C

Q: Which melting point does the source give for `CCCCCC#CC(=O)O` here?
A: 4 °C

Q: With `O=C(O)CCCCCCCCCCCCCCC(=O)O` as the compound, how does the ready biodegradability read?
A: readily biodegradable

Q: With `CC(=O)OCC=Cc1ccccc1` as the compound, how does the boiling point read?
A: 265 °C

Q: Which boiling point does the source give for `CC=CC(C)C` here?
A: 58.8 °C

Q: What about the melting point of the same compound?
A: -130 °C

Q: Which boiling point does the source give for `c1ccc(CNc2ccccc2)cc1` here?
A: 306 °C

Q: What about the melting point of the same compound?
A: 37.5 °C

Q: Which results are given for `Brc1ccc(Br)c2ccccc12`?
A: boiling point: 310 °C; melting point: 83 °C

Same assay, conditions: fish

Q: Which log10 BCF does the source give for `CCc1ccc(-c2ccccc2)cc1` here?
A: 2.82

Q: And the log10 biotransformation half-life (days)?
A: 0.06

Q: Which log10 BCF does the source give for `COP(=O)(OC)OC(=CCl)c1cc(Cl)c(Cl)cc1Cl` here?
A: 1.61

Q: What about the log10 biotransformation half-life (days) of the same compound?
A: -1.02

Q: With `Nc1ccccn1` as the compound, how does the log10 BCF read?
A: 1.06

Q: For `Cc1ccc(N)cc1N`, which log10 BCF is on record?
A: 1.7

Q: Which log10 BCF does the source give for `COc1c(Cl)cc(Cl)cc1Cl` here?
A: 2.86

Q: For `COP(=S)(OC)Oc1ccc([N+](=O)[O-])cc1`, which log10 BCF is on record?
A: 1.93

Q: And the log10 biotransformation half-life (days)?
A: 0.55

Q: Which log10 BCF does the source give for `CNc1ccccc1` here?
A: 1

Q: What about the log10 biotransformation half-life (days) of the same compound?
A: -0.88
